{"source": "patent EP1190712A1", "about": "(SMB Technology, priority 2000, dated 2002)", "origin": "cited, not measured here", "settings": "human, in vivo"}
{"smiles": "COc1cccc(C2(O)CCCCC2CN(C)C)c1", "note": "(stereo not shown) [Tramadol]", "values": [{"measurement": "Cmax (time)", "result": "30 to 60", "unit": "min"}]}
